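How tested: cells in 96-well plates exposed to compound for 48 hours at five concentrations. TGI marks complete inhibition of growth.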
Assays:
Test in all cases: NCI tumour cell line growth inhibition, 48 h
[1] = system: 786-0 renal
[2] = system: DMS 114 small cell lung
[3] = system: LXFL 529 NSCLC
[4] = system: M19-MEL melanoma
[5] = system: XF 498 CNS
[6] = system: P388 leukemia
[7] = system: P388/ADR leukemia
[8] = system: SN12K1 renal

| Compound | TGI [1] | TGI [2] | TGI [3] | TGI [4] | TGI [5] | also measured |
| --- | --- | --- | --- | --- | --- | --- |
| CCSCCC(N)C(=O)O (stereo unspecified) | > 100 µM | – | – | – | – | – |
| CC(=O)Nc1cc([As](=O)(O)O)ccc1O | > 100 µM | – | – | – | – | – |
| ONc1ncnc2nc[nH]c12 | > 100 µM | > 100 µM | > 100 µM | > 100 µM | > 100 µM | – |
| Cc1nc(N)nc(N)c1-c1ccc(Cl)c(Cl)c1 | > 100 µM | > 100 µM | > 100 µM | > 100 µM | > 100 µM | – |
| COc1cc(C2C(C(=O)O)=C(CO)Oc3cc4c(cc32)OCO4)cc(OC)c1O (stereo unspecified) | – | > 100 µM | – | – | – | – |
| CCS(=O)(=O)Nc1ccc(Nc2c3ccccc3nc3ccccc23)c(OC)c1 | – | 5.53 µM | – | 16.6 µM | 2.01 µM | TGI [6]: 0.214 µM; TGI [7]: 1.53 µM; TGI [8]: 4.11 µM |
| C[C@]12CC[C@@H]3c4ccc(OP(=O)(O)O)cc4CC[C@H]3[C@@H]1CCC2=O | > 100 µM | – | – | – | – | – |
| Cc1cccc2nc3c(C(=O)NCCN(C)C)cccc3cc12 | – | 3.37 µM | – | 4.42 µM | 3.24 µM | TGI [6]: 11.7 µM; TGI [7]: 11.8 µM; TGI [8]: 5.26 µM |
| COc1ccc2nc(N/N=C/C(C)=N/Nc3cc(C)c4cc(OC)ccc4n3)cc(C)c2c1 | 28 µM | – | – | – | – | – |
| CCOC(=O)c1nc2ccc(Cl)cc2c2c1Cc1ccccc1-2 | > 100 µM | – | > 100 µM | > 100 µM | > 100 µM | – |
| CCCc1[nH]c(SCCCCCCCCSc2nc(-c3ccc(F)cc3)c(CCC)[nH]2)nc1-c1ccc(F)cc1 | – | > 100 µM | > 100 µM | > 100 µM | – | – |
| N=c1c2c(C(N)=O)cn(C3OC(CO)C(O)C3O)c2ncn1O (stereo unspecified) | 1.08 µM | – | – | – | – | – |
| O=S(=O)(O)c1ccc2cccc(N=Nc3c(O)ccc4ccccc34)c2c1 | > 100 µM | – | – | – | – | – |

Source: PubChem BioAssay (NCI)
